Reference: patent US20260363244A1, “HERBICIDAL COMPOSITIONS COMPRISING URACILS” (BASF SE, priority 2022, published 2026)
Where two headings read alike, the source gives them in different places.

Key:
Assay type in all cases: in vivo
Amaranthus tamariscinus = experiment: greenhouse post-emergence herbicidal activity, AMATA; details: read-out: % activity (solo application); for activity at 0.5 g/ha: 0.5 gai/ha; for activity at 0.2 g/ha: 0.2 gai/ha
Method: (§1) The following examples serve to illustrate the invention.
(§2) The culture containers used were plastic pots containing loamy sand with approximately 3.0% of humus as substrate. The seeds of the test plants were sown separately for each species.
(§3) For the post-emergence treatment, the test plants were grown to a plant height of from 3 to 15 cm, depending on the plant habit, and only then treated with the active compounds which had been suspended or emulsified in water. To this end, the test plants were either sown directly, and grown in the same containers, or they were first grown separately as seedlings and transplanted into the test containers a few days prior to treatment.
(§4) Depending on the species, the plants were kept at 10-25 °C and 20-35 °C, respectively. The test period extended over 2 to 4 weeks. During this time, the plants were tended and their response to the individual treatments was evaluated.
(§5) Evaluation was carried out using a scale from 0 to 100. 100 means no emergence of the plants, or complete destruction of at least the above-ground parts, and 0 means no damage or normal course of growth. A good herbicidal activity is given at values of at least 70, and very good herbicidal activity is given at values of at least 85.
(§6) The respective stated components A and B, and if appropriate, C were formulated as a 5% by weight strength emulsion concentrate and, with addition of the amount of solvent system, introduced into the spray liquor used for applying the active compound. In the examples, the solvent used was water.
(§7) In the examples below, using the method of S. R. Colby (1967) “Calculating synergistic and antagonistic responses of herbicide combinations”, Weeds 15, p. 22ff., the value E, which is expected if the activity of the individual active compounds is only additive, was calculated.
(§8) E=X+Y−(X·Y/100) • where • X=percent activity using active compound A at an application rate a; • Y=percent activity using active compound B at an application rate b; • E=expected activity (in %) by A+B at application rates a+b.
(§9) The plants used in the greenhouse experiments were of the following species
(§10) In this context, a.i. means active ingredient, based on 100% active ingredient.
(§11) As indicated the application was post emergent (POST) at the respective growth stage (GS) of the weed.
(§12) Assessment was at the indicated days after treatment (DAT).

Eleusine indica = experiment: greenhouse post-emergence herbicidal activity, ELEIN; details: read-out: % activity (solo application); for activity at […]: 1.6 gai/ha
Method: as §1, §2, §3, §4, §5, §6, §7, §8, §9, §10, §11, §12

Echinocloa crus-galli = experiment: greenhouse post-emergence herbicidal activity, ECHCG; details: Echinochloa crus-galli, post-emergence, read-out: % activity (solo application)
Method: as §1, §2, §3, §4, §5, §6, §7, §8, §9, §10, §11, §12

Lolium multiflorum = experiment: greenhouse post-emergence herbicidal activity, LOLMU; details: Lolium multiflorum, post-emergence, read-out: % activity (solo application); for activity at […]: 1.6 gai/ha
Method: as §1, §2, §3, §4, §5, §6, §7, §8, §9, §10, §11, §12

Sorghum halepense = experiment: greenhouse post-emergence herbicidal activity, SORHA; details: Sorghum halepense, post-emergence, 480 h, GS 11-33, 20 DAT, read-out: % activity (solo application)
Method: as §1, §2, §3, §4, §5, §6, §7, §8, §9, §10, §11, §12

Commenline benghalensis = experiment: greenhouse post-emergence herbicidal activity, COMBE; details: read-out: % activity (solo application)
Method: as §1, §2, §3, §4, §5, §6, §7, §8, §9, §10, §11, §12

Kochia scoparia = experiment: greenhouse post-emergence herbicidal activity, KCHSC; details: Bassia scoparia, post-emergence, read-out: % activity (solo application); for activity at 0.4 g/ha: 0.4 gai/ha; for activity at 0.8 g/ha: 0.8 gai/ha
Method: as §1, §2, §3, §4, §5, §6, §7, §8, §9, §10, §11, §12

Abutilon theophrasti = experiment: greenhouse post-emergence herbicidal activity, ABUTH; details: read-out: % activity (solo application); for activity at 0.5 g/ha: 0.5 gai/ha; for activity at 0.4 g/ha: 0.4 gai/ha; for activity at 0.8 g/ha: 0.8 gai/ha
Method: as §1, §2, §3, §4, §5, §6, §7, §8, §9, §10, §11, §12

Avena fatua = experiment: greenhouse post-emergence herbicidal activity, AVEFA; details: read-out: % activity (solo application); for activity at 0.8 g/ha: 0.8 gai/ha; for activity at 0.5 g/ha: 0.5 gai/ha
Method: as §1, §2, §3, §4, §5, §6, §7, §8, §9, §10, §11, §12

Digitaria sanguinales = experiment: greenhouse post-emergence herbicidal activity, DIGSA; details: Digitaria, post-emergence, read-out: % activity (solo application)
Method: as §1, §2, §3, §4, §5, §6, §7, §8, §9, §10, §11, §12

Setaria faberi = experiment: greenhouse post-emergence herbicidal activity, SETFA; details: for % activity (solo application) / activity at 0.5 g/ha: 0.5 gai/ha; for activity at […]: 0.25 gai/ha
Method: as §1, §2, §3, §4, §5, §6, §7, §8, §9, §10, §11, §12

Setaria viridis = experiment: greenhouse post-emergence herbicidal activity, SETVI; details: Setaria viridis, post-emergence, read-out: % activity (solo application); for activity at 0.5 g/ha: 0.5 gai/ha; for activity at 0.2 g/ha: 0.2 gai/ha; for activity at 0.4 g/ha: 0.4 gai/ha
Method: as §1, §2, §3, §4, §5, §6, §7, §8, §9, §10, §11, §12

Brachiaria decumbens = experiment: greenhouse post-emergence herbicidal activity, BRADC; details: Urochloa decumbens, post-emergence, 1.6 gai/ha, read-out: % activity (solo application)
Method: as §1, §2, §3, §4, §5, §6, §7, §8, §9, §10, §11, §12

[1] = 480 h, GS 11-33, 20 DAT, 1.6 gai/ha
[2] = 480 h, GS 12-16, 20 DAT, 0.25 gai/ha
[3] = 480 h, GS 11-33, 20 DAT, 0.2 gai/ha
[4] = 480 h, GS 12-16, 20 DAT, 0.5 gai/ha
[5] = 144 h, GS 12-16, 6 DAT, 0.25 gai/ha
[6] = 144 h, GS 12-16, 6 DAT, 0.5 gai/ha
[7] = 168 h, GS 11-33, 7 DAT, 1.6 gai/ha
[8] = 168 h, GS 11-33, 7 DAT, 0.2 gai/ha
[9] = 168 h, GS 12-16, 7 DAT, 0.25 gai/ha
[10] = Setaria faberi, post-emergence, 144 h, GS 12-16, 6 DAT, read-out: % activity (solo application)
[11] = Setaria faberi, post-emergence, 480 h, GS 12-16, 20 DAT, read-out: % activity (solo application)

CCOC(=O)COc1ccccc1Oc1nc(-n2c(=O)cc(C(F)(F)F)n(C)c2=O)c(F)cc1Cl [(I.3)]
activity at 0.5 g/ha (Amaranthus tamariscinus; 144 h, GS 12-16, 6 DAT): 90%
activity at 0.2 g/ha (Amaranthus tamariscinus; 168 h, GS 11-33, 7 DAT): 70%
activity at 0.2 g/ha (Amaranthus tamariscinus; 480 h, GS 11-33, 20 DAT): 40%
activity at […] (Amaranthus tamariscinus; [1]): 90%
activity at […] (Amaranthus tamariscinus; [2]): 70%
activity at 0.5 g/ha (Amaranthus tamariscinus; 480 h, GS 12-16, 20 DAT): 85%
activity at […] (Eleusine indica; 168 h, GS 11-33, 7 DAT): 95%
activity at 0.2 g/ha (Eleusine indica; [3]): 20%
activity at […] (Eleusine indica; 480 h, GS 11-33, 20 DAT): 90%
activity at 0.5 g/ha (Eleusine indica; [4]): 35%
activity at […] (Echinocloa crus-galli; [5]): 40%
activity at 0.5 g/ha (Echinocloa crus-galli; [6]): 55%
activity at […] (Echinocloa crus-galli; [7]): 60%
activity at […] (Echinocloa crus-galli; [1]): 60%
activity at […] (Lolium multiflorum; 168 h, GS 11-33, 7 DAT): 30%
activity at 0.2 g/ha (Lolium multiflorum; [3]): 5%
activity at 0.8 g/ha (Lolium multiflorum; 480 h, GS 11-33, 20 DAT, 0.8 gai/ha): 10%
activity at […] (Lolium multiflorum; 480 h, GS 11-33, 20 DAT): 10%
activity at 0.2 g/ha (Sorghum halepense; 0.2 gai/ha): 10%
activity at 0.4 g/ha (Sorghum halepense; 0.4 gai/ha): 20%
activity at 0.8 g/ha (Sorghum halepense; 0.8 gai/ha): 30%
activity at […] (Sorghum halepense; 1.6 gai/ha): 30%
activity at […] (Commenline benghalensis; [5]): 40%
activity at 0.5 g/ha (Commenline benghalensis; [6]): 90%
activity at 0.2 g/ha (Commenline benghalensis; [8]): 20%
activity at […] (Commenline benghalensis; [1]): 95%
activity at […] (Commenline benghalensis; [2]): 60%
activity at 0.4 g/ha (Kochia scoparia; 168 h, GS 11-33, 7 DAT): 60%
activity at 0.8 g/ha (Kochia scoparia; 168 h, GS 11-33, 7 DAT): 75%
activity at 0.2 g/ha (Kochia scoparia; [3]): 15%
activity at 0.4 g/ha (Kochia scoparia; 480 h, GS 11-33, 20 DAT): 30%
activity at 0.8 g/ha (Kochia scoparia; 480 h, GS 11-33, 20 DAT): 55%
activity at […] (Kochia scoparia; [1]): 75%
activity at […] (Kochia scoparia; [2]): 40%
activity at 0.5 g/ha (Abutilon theophrasti; 144 h, GS 12-16, 6 DAT): 95%
activity at 0.2 g/ha (Abutilon theophrasti; [8]): 80%
activity at 0.4 g/ha (Abutilon theophrasti; 168 h, GS 11-33, 7 DAT): 85%
activity at 0.8 g/ha (Abutilon theophrasti; 168 h, GS 11-33, 7 DAT): 85%
activity at […] (Abutilon theophrasti; [7]): 90%
activity at […] (Abutilon theophrasti; [9]): 85%
activity at 0.5 g/ha (Abutilon theophrasti; 168 h, GS 12-16, 7 DAT): 90%
activity at 0.4 g/ha (Abutilon theophrasti; 480 h, GS 11-33, 20 DAT): 80%
activity at 0.8 g/ha (Abutilon theophrasti; 480 h, GS 11-33, 20 DAT): 80%
activity at […] (Abutilon theophrasti; [1]): 90%
activity at […] (Abutilon theophrasti; 504 h, GS 12-16, 21 DAT, 0.25 gai/ha): 85%
activity at […] (Avena fatua; [5]): 35%
activity at 0.8 g/ha (Avena fatua; 168 h, GS 11-33, 7 DAT): 25%
activity at […] (Avena fatua; [7]): 40%
activity at […] (Avena fatua; [9]): 35%
activity at 0.5 g/ha (Avena fatua; 168 h, GS 12-16, 7 DAT): 40%
activity at 0.2 g/ha (Avena fatua; [3]): 10%
activity at 0.8 g/ha (Avena fatua; 480 h, GS 11-33, 20 DAT): 15%
activity at […] (Avena fatua; [1]): 30%
activity at […] (Avena fatua; [2]): 10%
activity at 0.5 g/ha (Avena fatua; 480 h, GS 12-16, 20 DAT): 25%
activity at 0.4 g/ha (Digitaria sanguinales; 192 h, GS 11-33, 8 DAT, 0.4 gai/ha): 30%
activity at 0.2 g/ha (Digitaria sanguinales; [3]): 10%
activity at 0.5 g/ha (Digitaria sanguinales; [4]): 35%
% activity (solo application) (Setaria faberi; GS 12-16, 6 DAT): 60%
% activity (solo application) (Setaria faberi; GS 12-16, 20 DAT): 60%
activity at […] (Setaria faberi; [10]): 55%
activity at 0.5 g/ha (Setaria faberi; [10]): 65%
activity at 0.5 g/ha (Setaria faberi; Setaria faberi, post-emergence, 168 h, GS 12-16, 7 DAT, read-out: % activity (solo application)): 75%
activity at 0.2 g/ha (Setaria faberi; Setaria faberi, post-emergence, 480 h, GS 11-33, 20 DAT, 0.2 gai/ha, read-out: % activity (solo application)): 15%
activity at 0.4 g/ha (Setaria faberi; Setaria faberi, post-emergence, 480 h, GS 11-33, 20 DAT, 0.4 gai/ha, read-out: % activity (solo application)): 80%
activity at […] (Setaria faberi; [11]): 55%
activity at 0.5 g/ha (Setaria faberi; [11]): 55%
activity at 0.5 g/ha (Setaria faberi; Setaria faberi, post-emergence, 504 h, GS 12-16, 21 DAT, read-out: % activity (solo application)): 70%
activity at […] (Setaria viridis; [5]): 35%
activity at 0.5 g/ha (Setaria viridis; 144 h, GS 12-16, 6 DAT): 60%
activity at 0.2 g/ha (Setaria viridis; 192 h, GS 11-33, 8 DAT): 20%
activity at 0.4 g/ha (Setaria viridis; 192 h, GS 11-33, 8 DAT): 25%
activity at […] (Setaria viridis; 192 h, GS 11-33, 8 DAT, 1.6 gai/ha): 95%
activity at 0.2 g/ha (Setaria viridis; 480 h, GS 11-33, 20 DAT): 5%
activity at 0.4 g/ha (Setaria viridis; 480 h, GS 11-33, 20 DAT): 10%
activity at […] (Setaria viridis; [1]): 90%
activity at […] (Setaria viridis; [2]): 30%
activity at 0.5 g/ha (Setaria viridis; 480 h, GS 12-16, 20 DAT): 85%
activity at […] (Brachiaria decumbens; 192 h, GS 11-33, 8 DAT): 50%
activity at […] (Brachiaria decumbens; 480 h, GS 11-33, 20 DAT): 40%
